# Results published in patent US6143769A, “Phenylacetic acid benzylamides” (Karl Thomae GmbH, priority 1983, dated 2000).
# Read-outs that look alike come from different tables or passages of the source.
# Columns and labels:
# [1] = test system: blood sugar; experiment: Blood sugar-lowering effect of the enantiomers in fasted female rats (oral); type: in vivo
# Protocol: The substances to be investigated were suspended in 1.5% methylcellulose immediately before the start of the test and administered into the oesophagus. […] Glucose was measured in the supernatant by the hexokinase method using an analytical photometer. The statistical evaluation was carried out using the Student's t-test with p=0.05 as the limit of significance. Table 1 which follows contains the statistically significant values as percentage deviations from the control: […]
# [2] = test system: glucose; experiment: Study 4: whole blood glucose, AG-EE 623 ZW spray-dried tablets; type: in vivo, human
# Text: Blood samples were taken at different times.
# [3] = Study 3: plasma concentration of active substance, single test subject; type: in vivo, human
# [4] = test system: glucose; experiment: Study 3: whole blood glucose, single fasting test subject, crossover; type: in vivo, human
# [5] = for Maximum concentration: 2 mg tablet p.o.
# Protocol: (§1) More specifically, the studies which follow were carried out on healthy male volunteers in whom the levels of glucose and active substance in the course of time were determined:
# (§2) 0.25 hours after oral administration a standard breakfast (B) was eaten, 5.5 hours after administration a standard lunch (L) was eaten and 10 hours after administration a standard evening meal (D) was eaten. Blood samples were taken at different times. The glucose concentrations were determined from whole blood according to study 1. The AG-EE 623 ZW concentrations in the plasma were determined by a stereospecific competitive enzyme immunoassay (ELISA) with a detection limit of 0.5 ng/ml.
# (§3) The AG-EE 623 ZW-specific ELISA used is based on polyclonal rabbit antibodies directed against AG-EE 623 ZW covalently bound to human serum albumin. The cross reaction with AG-EE 624 ZW is less than 1:100. Microtitre immunoplates were coated with these antibodies and, after washing and blocking of the plates, incubated with standard or unknown plasma samples at 4° C. for one hour with shaking. Then AG-EE 623 ZW coupled to horse-radish peroxidase was added and incubated for a further 4 hours under the same conditions. 1,2-phenylenediamine was used as substrate for photometrically quantifying the bound enzyme-coupled molecules.
# [6] = clinical; conditions: human, plasma, 1 mg
# Protocol: as §1
# (§4) In the interests of more precise clarification, study 5 was carried out (randomised, open, crossover). […] 2 hours after administration a standard breakfast (B) was eaten, 5 hours after administration a standard lunch (L) was eaten and 10 hours after administration a standard dinner (D) was eaten. Blood samples were taken at different times. The glucose concentrations were measured in the plasma as in study 1. […] The plasma concentrations of AG-EE 624 ZW were calculated as the difference between the two concentrations found:
# [7] = clinical; conditions: human, plasma, po
# Protocol: as §1, §2, §3
# [8] = test system: rats; experiment: Acute toxicity of (S)-enantiomer, single oral dose 1000 mg/kg, rats; type: in vivo; conditions: 1000 mg/kg p.o.
# [9] = after administration of racemate
# Protocol: as §1, §4
smiles,measurement,setting,value
"CCOc1cc(CC(=O)N[C@@H](CC(C)C)c2ccccc2N2CCCCC2)ccc1C(=O)O [AG-EE 623 ZW, (S)(+)-2-ethoxy-4-[N-[1-(2-piperidino-phenyl)-3-methyl-1-butyl]aminocarbonylmethyl]-benzoic acid]","Glucose, percentage deviation from control","[1]; 0.015 mg/kg p.o., 1 h",-17 percentage deviation
same,"Glucose, percentage deviation from control","[1]; 0.015 mg/kg p.o., 2 h",-36 percentage deviation
same,"Glucose, percentage deviation from control","[1]; 0.015 mg/kg p.o., 3 h",-37 percentage deviation
same,"Glucose, percentage deviation from control","[1]; 0.015 mg/kg p.o., 4 h",-32 percentage deviation
same,"Glucose, percentage deviation from control","[1]; 0.015 mg/kg p.o., 5 h",-35 percentage deviation
same,"Glucose, percentage deviation from control","[1]; 0.015 mg/kg p.o., 6 h",-35 percentage deviation
same,Blood sugar-lowering effect (in words),[1]; rat,effective enantiomer
same,Duration of effect,"[1]; rat, 0.015 mg/kg p.o.",> 6 h
same,Glucose (mean),"[2]; 0.5 mg tablet, 0 h",5.21 mmol/L
same,Glucose (mean),"[2]; 0.5 mg, 0.25 h (breakfast)",5.09 mmol/L
same,Glucose (mean),"[2]; 0.5 mg, 0.50 h",5.01 mmol/L
same,Glucose (mean),"[2]; 0.5 mg, 0.75 h",5.85 mmol/L
same,Glucose (mean),"[2]; 0.5 mg, 1.00 h",5.88 mmol/L
same,Glucose (mean),"[2]; 0.5 mg, 1.50 h",4.05 mmol/L
same,Glucose (mean),"[2]; 0.5 mg, 2.09 h (so in the source)",3.50 mmol/L
same,Glucose (mean),"[2]; 0.5 mg, 3.00 h",3.90 mmol/L
same,Glucose (mean),"[2]; 0.5 mg, 4.00 h",4.08 mmol/L
same,Glucose (mean),"[2]; 0.5 mg, 5.00 h",4.32 mmol/L
same,Glucose (mean),"[2]; 0.5 mg, 6.00 h",6.63 mmol/L
same,Glucose (mean),"[2]; 0.5 mg, 8.00 h",5.61 mmol/L
same,Glucose (mean),"[2]; 0.5 mg, 10.00 h (dinner)",4.81 mmol/L
same,Glucose (mean),"[2]; 0.5 mg, 24.00 h",4.82 mmol/L
same,Time of peak blood sugar lowering,[2]; 1 mg and 2 mg tablet,1.5 h
same,Duration of blood sugar lowering,[2]; 1 mg tablet,up to 2 hours
same,Start of blood sugar lowering,[2]; 1 mg tablet,1.0 h
same,Glucose (mean),"[2]; 1 mg tablet, 0 h",4.62 mmol/L
same,Glucose (mean),"[2]; 1 mg, 0.25 h (breakfast)",4.62 mmol/L
same,Glucose (mean),"[2]; 1 mg, 0.50 h",4.57 mmol/L
same,Glucose (mean),"[2]; 1 mg, 0.75 h",5.36 mmol/L
same,Glucose (mean),"[2]; 1 mg, 1.00 h",4.72 mmol/L
same,Glucose (mean),"[2]; 1 mg, 1.50 h",2.98 mmol/L
same,Glucose (mean),"[2]; 1 mg, 2.09 h (so in the source)",3.20 mmol/L
same,Glucose (mean),"[2]; 1 mg, 3.00 h",3.69 mmol/L
same,Glucose (mean),"[2]; 1 mg, 4.00 h",4.05 mmol/L
same,Glucose (mean),"[2]; 1 mg, 5.00 h",3.94 mmol/L
same,Glucose (mean),"[2]; 1 mg, 6.00 h",6.48 mmol/L
same,Glucose (mean),"[2]; 1 mg, 8.00 h",5.37 mmol/L
same,Glucose (mean),"[2]; 1 mg, 10.00 h (dinner)",4.57 mmol/L
same,Glucose (mean),"[2]; 1 mg, 24.00 h",4.69 mmol/L
same,Duration of blood sugar lowering,[2]; 2 mg tablet,≤ 5 h
same,Start of blood sugar lowering,[2]; 2 mg tablet,0.75 h
same,Glucose (mean),"[2]; 2 mg tablet, 0 h",4.67 mmol/L
same,Glucose (mean),"[2]; 2 mg, 0.25 h (breakfast)",5.14 mmol/L
same,Glucose (mean),"[2]; 2 mg, 0.50 h",4.38 mmol/L
same,Glucose (mean),"[2]; 2 mg, 0.75 h",4.54 mmol/L
same,Glucose (mean),"[2]; 2 mg, 1.00 h",4.27 mmol/L
same,Glucose (mean),"[2]; 2 mg, 1.50 h",2.65 mmol/L
same,Glucose (mean),"[2]; 2 mg, 2.09 h (so in the source)",2.74 mmol/L
same,Glucose (mean),"[2]; 2 mg, 3.00 h",3.07 mmol/L
same,Glucose (mean),"[2]; 2 mg, 4.00 h",3.64 mmol/L
same,Glucose (mean),"[2]; 2 mg, 5.00 h",3.88 mmol/L
same,Glucose (mean),"[2]; 2 mg, 6.00 h",6.47 mmol/L
same,Glucose (mean),"[2]; 2 mg, 8.00 h",4.61 mmol/L
same,Glucose (mean),"[2]; 2 mg, 10.00 h (dinner)",4.45 mmol/L
same,Glucose (mean),"[2]; 2 mg, 24.00 h",4.77 mmol/L
same,Maximum level relative to level after same dose of AG-EE 388 ZW,[3]; 2 mg,about one third
same,Maximum concentration,"[3]; 2 mg capsule, listed as 623",24 ng/mL
same,Active substance concentration,"[3]; 2 mg, 1.25 h",0 ng/mL
same,Active substance concentration,"[3]; 2 mg, 2.50 h",0 ng/mL
same,Active substance concentration,"[3]; 2 mg, 3.00 h",0 ng/mL
same,Active substance concentration,"[3]; 2 mg, 3.50 h",0 ng/mL
same,Active substance concentration,"[3]; 2 mg, 4.00 h",0 ng/mL
same,Active substance concentration,"[3]; 2 mg, 6.00 h",0 ng/mL
same,Active substance concentration,"[3]; 2 mg, 7.00 h",0 ng/mL
same,Cmax,"[3]; human, plasma, po, 2 mg, 2 mg capsule, read-out: Maximum concentration",22 to 24 ng/mL
same,concentration at 1.5 h,"[3]; human, plasma, po, 2 mg, 1.50 h",22 ng/mL
same,concentration at 1.75 h,"[3]; human, plasma, po, 2 mg, 1.75 h",24 ng/mL
same,concentration at 2 h,"[3]; human, plasma, po, 2 mg, 2.00 h",7 ng/mL
same,Maximum lowering of blood glucose,[4]; 2 mg,-43%
same,Onset of effect,[4]; 2 mg,0.5 h
same,Time of maximum blood sugar reduction,[4]; 2 mg,1.5 h
same,"Glucose, deviation against t = 0","[4]; 2 mg capsule, 0 h",0%
same,"Glucose, deviation against t = 0","[4]; 2 mg, 0.50 h",-10%
same,"Glucose, deviation against t = 0","[4]; 2 mg, 0.75 h",-14%
same,"Glucose, deviation against t = 0","[4]; 2 mg, 1.00 h",-18%
same,"Glucose, deviation against t = 0","[4]; 2 mg, 1.25 h",-29%
same,"Glucose, deviation against t = 0","[4]; 2 mg, 1.50 h",-43%
same,"Glucose, deviation against t = 0","[4]; 2 mg, 1.75 h",-40%
same,"Glucose, deviation against t = 0","[4]; 2 mg, 2.00 h",-33%
same,"Glucose, deviation against t = 0","[4]; 2 mg, 2.50 h",-33%
same,"Glucose, deviation against t = 0","[4]; 2 mg, 3.00 h",-31%
same,"Glucose, deviation against t = 0","[4]; 2 mg, 4.00 h",-20%
same,"Glucose, deviation against t = 0","[4]; 2 mg, 5.00 h",-22%
same,"Glucose, deviation against t = 0","[4]; 2 mg, 6.00 h",-28%
same,"Glucose, deviation against t = 0","[4]; 2 mg, 7.00 h",-22%
same,"Glucose, deviation against t = 0","[4]; 2 mg, 8.00 h",-26%
same,Concentration (mean),"[5]; 0.5 mg tablet, 0 h",0.0 ng/mL
same,Concentration (mean),"[5]; 0.5 mg, 4.00 h",0.0 ng/mL
same,Concentration (mean),"[5]; 0.5 mg, 5.00 h",0.0 ng/mL
same,Concentration (mean),"[5]; 0.5 mg, 6.00 h",0.0 ng/mL
same,Concentration (mean),"[5]; 0.5 mg, 8.00 h",0.0 ng/mL
same,Concentration (mean),"[5]; 0.5 mg, 10.00 h",0.0 ng/mL
same,Concentration (mean),"[5]; 0.5 mg, 24.00 h",0.0 ng/mL
same,Time at which plasma level is below detection limit,[5]; 1 mg tablet,3.0 h
same,Concentration (mean),"[5]; 1 mg tablet, 0 h",0.0 ng/mL
same,Concentration (mean),"[5]; 1 mg, 8.00 h",0.0 ng/mL
same,Concentration (mean),"[5]; 1 mg, 10.00 h",0.0 ng/mL
same,Concentration (mean),"[5]; 1 mg, 24.00 h",0.0 ng/mL
same,Time at which plasma level is below detection limit,[5]; 2 mg tablet,4.0 h
same,Maximum concentration,[5],50.4 ± 26.3 ng/mL
same,Maximum concentration,[5]; listed as 623,50 ± 26 ng/mL
same,Concentration (mean),"[5]; 2 mg tablet, 0 h",0.0 ng/mL
same,Concentration (mean),"[5]; 2 mg, 8.00 h",0.0 ng/mL
same,Concentration (mean),"[5]; 2 mg, 10.00 h",0.0 ng/mL
same,Concentration (mean),"[5]; 2 mg, 24.00 h",0.0 ng/mL
same,Fall of plasma levels (comparison),"[5]; versus AG-EE 388 ZW, identical dose",fall more rapidly towards zero than the AG-EE 388 ZW levels
same,MRT,[6]; iv,54 ± 36 min
same,clearance,[6]; iv,443 ± 140 mL/min
same,bioavailability,[6]; po,76 ± 20%
same,Tmax,[7],30 min
same,AUC(0-inf),[7]; 0.5 mg,14.3 ± 8.6 ng·h/mL
same,Cmax,[7]; 0.5 mg,15 ± 8 ng/mL
same,MRT,[7]; 0.5 mg,54 ± 12 min
same,Tmax,[7]; 0.5 mg,36 ± 6 min
same,concentration at 0.25 h,[7]; 0.5 mg,8.4 ng/mL
same,concentration at 0.5 h,[7]; 0.5 mg,4.7 ng/mL
same,concentration at 0.75 h,[7]; 0.5 mg,1.6 ng/mL
same,concentration at 1 h,[7]; 0.5 mg,7 ng/mL
same,concentration at 1.5 h,[7]; 0.5 mg,2.6 ng/mL
same,concentration at 2.09 h,[7]; 0.5 mg,1.2 ng/mL
same,concentration at 3 h,[7]; 0.5 mg,0.3 ng/mL
same,half-life,[7]; 0.5 mg,30 ± 12 min
same,concentration at 0.25 h,[7]; 1 mg,14.5 ng/mL
same,concentration at 0.5 h,[7]; 1 mg,27.9 ng/mL
same,concentration at 0.75 h,[7]; 1 mg,24.2 ng/mL
same,concentration at 1 h,[7]; 1 mg,15.3 ng/mL
same,concentration at 1.5 h,[7]; 1 mg,7.8 ng/mL
same,concentration at 2.09 h,[7]; 1 mg,4.7 ng/mL
same,concentration at 3 h,[7]; 1 mg,1.4 ng/mL
same,concentration at 0.25 h,[7]; 2 mg,24.1 ng/mL
same,concentration at 0.5 h,[7]; 2 mg,50.4 ng/mL
same,concentration at 0.75 h,[7]; 2 mg,41.1 ng/mL
same,concentration at 1 h,[7]; 2 mg,29.9 ng/mL
same,concentration at 1.5 h,[7]; 2 mg,13.5 ng/mL
same,concentration at 2.09 h,[7]; 2 mg,8.8 ng/mL
same,concentration at 3 h,[7]; 2 mg,4.3 ng/mL
same,concentration at 4 h,[7]; 2 mg,1.5 ng/mL
same,concentration at 5 h,[7]; 2 mg,0.4 ng/mL
same,concentration at 6 h,[7]; 2 mg,0.2 ng/mL
same,Toxicity,[8],virtually non-toxic
same,Deaths,"[8]; 5 male and 5 female rats, 14 days",no animals died
same,Elimination (comparison),[9],"eliminated more rapidly than the ineffective enantiomer, AG-EE 624 ZW"
